From patent US20240000878A1 (priority 2022, published 2024)
In brackets after ≈: the same amount, converted by molar mass. Several values for one entry are separate records, joined by “and”; a condition that tells them apart may be missing. Equal entries are not always repeated. Structures can show the parent of a compound that is named as a salt.

How the values were obtained:
Test in all cases: microbe, parasite or virus in culture
Type in all cases: cell-based
[1] = test system: Influenza A/CA/07/09 (H1N1); details: for LRV (log reduction value): average reduction of virus vs average virus control
[2] = test system: SARS-CoV-2 strain USA/PHC658/2021 (B.1.617.2; delta); details: for LRV (log reduction value): average reduction of virus vs average virus control
[3] = test system: Respiratory Syncytial Virus (RSV) strain A2; details: for LRV (log reduction value): average reduction of virus vs average virus control; for antiviral activity against RSV (in words): summary of Table 2

OC[C@@H](O)[C@@H](O)CO [Erythritol]
LRV (log reduction value) ([1]; concentration 5 %, day 3): 3.17 | antiviral activity against H1N1 (in words) ([1]; summary of Table 1): showed antiviral activity | LRV (log reduction value) ([2]; concentration 5 %, day 6): 3.29 | LRV (log reduction value) ([3]; concentration 5 %, day 5): 1.84

CCC(CC)COC(=O)[C@H](C)N[P@](=O)(OC[C@H]1O[C@@](C#N)(c2ccc3c(N)ncnn23)[C@H](O)[C@@H]1O)Oc1ccccc1 [Remdesivir]
EC90 ([2]; Severe acute respiratory syndrome coronavirus 2, 144 h): 0.12 µg/mL (≈ 0.199 µM) | Log10 CCID50 virus per 0.2 mL ([2]; concentration 5 μg/ml): 0.67 | SI ([2]; with the EC90, day 6): SI >42

NC(=O)c1ncn([C@@H]2O[C@H](CO)[C@@H](O)[C@H]2O)n1 [Ribavirin, reference compound]
EC90 ([1]; Influenza A virus, H1N1, 72 h): 3.1 µg/mL (≈ 12.7 µM) | Log10 CCID50 virus per 0.2 mL ([1]; concentration 100 μg/ml): 0.67 | SI ([1]; with the EC90, day 3): SI >32 | Log10 CCID50 virus per 0.2 mL ([3]; concentration 100 μg/ml): 1.30 | EC90 ([3]; human respiratory syncytial virus, 120 h, 90% effective concentration (reduce virus yield by 1 log10), regression analysis, day 5): 4.6 µg/mL (≈ 18.8 µM) | SI ([3]; with the EC90, day 5): SI >22

OC[C@@H](O)[C@H](O)[C@@H](O)CO [Xylitol]
Log10 CCID50 virus per 0.2 mL ([1]; concentration 5 %): 6.00 | LRV (log reduction value) ([1]; concentration 5 %, day 3): 1.27 | LRV (log reduction value) ([2]; concentration 5 %, day 6): 3.84 | LRV (log reduction value) ([3]; concentration 5 %, day 5): 2.65 | antiviral activity against RSV (in words) [3]: antiviral activity

OC[C@@H](O)[C@@H](O)[C@H](O)[C@@H](O)CO [Sorbitol]
LRV (log reduction value) ([1]; concentration 5 %, day 3): 1.47 | Log10 CCID50 virus per 0.2 mL ([2]; concentration 5 %): 1.50 and 1.67 | LRV (log reduction value) ([2]; concentration 5 %, day 6): 3.5 | Log10 CCID50 virus per 0.2 mL ([3]; concentration 5 %): 2.00 | LRV (log reduction value) ([3]; concentration 5 %, day 5): 2.49 | antiviral activity against RSV (in words) [3]: antiviral activity

CN(C)CCC(c1ccc(Cl)cc1)c1ccccn1 (centres unmarked) [Chlorpheniramine Maleate, reference compound]
LRV (log reduction value) ([1]; concentration 1 %, day 3): 6.02 | Log10 CCID50 virus per 0.2 mL ([2]; concentration 1 %): 2.30 and 2.50 | LRV (log reduction value) ([2]; concentration 1 %, day 6): 2.69 | Log10 CCID50 virus per 0.2 mL ([3]; concentration 1 %): 1.50 | LRV (log reduction value) ([3]; concentration 1 %, day 5): 2.99
